Experimental data published in ChEMBL document CHEMBL1147462, “Exploring QSAR of melatonin receptor ligand benzofuran derivatives using E-state index” (Bioorg Med Chem Lett, 2004).

Experiments:
[1] = biological target: T1, Melatonin receptor (Homo sapiens) (UniProt P48039+P49286); test: Selectivity (pC2-PC1) was determined; assay type: protein assay
[2] = biological target: T2, Melatonin receptor type 1B (Homo sapiens) (UniProt P49286); test: Binding affinity against melatonin receptor type 1B
T2 sequence (whole entry): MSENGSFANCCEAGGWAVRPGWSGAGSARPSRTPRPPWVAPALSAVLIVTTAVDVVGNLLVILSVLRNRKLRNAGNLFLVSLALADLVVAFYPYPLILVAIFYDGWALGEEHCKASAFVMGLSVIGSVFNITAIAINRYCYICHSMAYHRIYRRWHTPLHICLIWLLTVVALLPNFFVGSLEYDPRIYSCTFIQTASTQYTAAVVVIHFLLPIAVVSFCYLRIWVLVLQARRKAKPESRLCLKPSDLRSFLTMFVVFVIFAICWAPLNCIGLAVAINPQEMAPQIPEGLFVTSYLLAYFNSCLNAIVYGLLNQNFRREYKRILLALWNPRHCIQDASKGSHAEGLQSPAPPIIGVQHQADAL

[3] = biological target: Melatonin receptor type 1A (Homo sapiens) (UniProt P48039); test: Binding affinity against Melatonin receptor type 1A
[4] = biological target: T1, Melatonin receptor (Homo sapiens); test: Binding affinity against melatonin (MT1) receptor (pC1); assay type: protein assay

Melatonin receptor type 1A (Homo sapiens), sequence (P48039 whole entry): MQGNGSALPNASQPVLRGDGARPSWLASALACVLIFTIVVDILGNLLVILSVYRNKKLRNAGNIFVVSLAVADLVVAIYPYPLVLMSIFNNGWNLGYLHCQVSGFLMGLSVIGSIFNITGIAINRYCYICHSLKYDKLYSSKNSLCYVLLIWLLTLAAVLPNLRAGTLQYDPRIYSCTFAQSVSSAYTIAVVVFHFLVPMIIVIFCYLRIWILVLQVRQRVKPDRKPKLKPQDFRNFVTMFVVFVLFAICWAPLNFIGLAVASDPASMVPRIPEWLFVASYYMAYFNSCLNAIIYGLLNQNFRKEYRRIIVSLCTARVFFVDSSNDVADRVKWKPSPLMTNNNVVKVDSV
T1 sequence (P48039 whole entry, looked up, one chain of several): as the sequence (P48039 whole entry) above

SMILES	Selectivity [1]	pC1 [2]	pC1 [3]	pC1 [4]
COc1ccc2oc(-c3ccccc3)c(CCNC(C)=O)c2c1	-0.301	4.7	5	–
COc1ccc2oc(Cc3ccccc3)c(CCNC(=O)CI)c2c1	1.32	3.39	2.06	–
CCc1ccc2oc(Cc3cccc(OC)c3)c(CCNC(C)=O)c2c1	1.23	1.77	0.541	–
COc1ccc2oc(Cc3cccc(Cl)c3)c(CCNC(C)=O)c2c1	1.51	3.66	2.14	–
C=CC(=O)NCCc1c(-c2ccccc2)oc2ccc(OC)cc12	0.301	5	4.7	–
CC(=O)NCCc1c(Cc2ccccc2)oc2ccccc12	1.17	1.98	0.81	–
COc1ccc2oc(Cc3ccccc3)c(CCNC(=O)c3ccco3)c2c1	1.28	1.44	0.156	–
COc1ccc2oc(CCCc3ccccc3)c(CCNC(C)=O)c2c1	1.32	2.82	1.5	–
COc1ccc2oc(CC3CCCCC3)c(CCNC(C)=O)c2c1	1.43	2.6	1.18	–
COc1ccc2oc(Cc3cccc(F)c3)c(CCNC(C)=O)c2c1	0.513	3.64	3.12	–
COc1cccc(Cc2oc3ccc(OC)cc3c2CCNC(C)=O)c1	2.1	3.5	–	–
C=CCC(=O)NCCc1c(Cc2ccccc2)oc2ccc(OC)cc12	1.77	4.22	2.46	–
COc1ccc2oc(Cc3ccccc3OC)c(CCNC(C)=O)c2c1	2.1	3.47	1.84	–
C=CC(=O)NCCc1c(Cc2ccccc2)oc2ccc(OC)cc12	1.89	3.16	1.27	–
CC(=O)NCCc1c(Cc2ccccc2)oc2ccc(O)cc12	0.852	1.1	0.245	–
COc1ccc(Cc2oc3ccc(OC)cc3c2CCNC(C)=O)cc1	1.68	3.3	1.62	–

Results, then the compound that gave them:

Selectivity [1]	pC1 [2]	pC1 [3]	pC1 [4]	SMILES
-0.301	4.7	5	–	C=CCC(=O)NCCc1c(-c2ccccc2)oc2ccc(OC)cc12
1.19	3.46	2.27	–	CNC(=O)NCCc1c(Cc2ccccc2)oc2ccc(OC)cc12
0.893	2.08	1.19	–	CCc1ccc2oc(Cc3ccccc3)c(CCNC(C)=O)c2c1
1.09	1.73	0.64	–	COc1cccc(Cc2oc3ccccc3c2CCNC(C)=O)c1
0	4.4	–	4.4	CNC(=O)NCCc1c(-c2ccccc2)oc2ccc(OC)cc12
1.83	2.93	1.1	–	COc1ccc2oc(Cc3cccc(C(F)(F)F)c3)c(CCNC(C)=O)c2c1
0.407	2.49	2.09	–	CCCCCCOc1ccc2oc(Cc3ccccc3)c(CCNC(C)=O)c2c1
0.147	0.469	0.322	–	COc1ccc2oc(Cc3cc(C(F)(F)F)cc(C(F)(F)F)c3)c(CCNC(C)=O)c2c1
-1.45	0.442	1.89	–	COc1ccc2oc(-c3ccccc3)c(CCNC(=O)Cc3ccco3)c2c1
0.642	2.01	1.37	–	CCCCCOc1ccc2oc(Cc3ccccc3)c(CCNC(C)=O)c2c1
1.22	3.7	2.48	–	CCCC(=O)NCCc1c(Cc2ccccc2)oc2ccc(OC)cc12
0.82	1.89	1.07	–	COc1ccc2oc(Cc3c(Cl)cccc3Cl)c(CCNC(C)=O)c2c1
0.682	3.68	3	–	C/C=C/C(=O)NCCc1c(-c2ccccc2)oc2ccc(OC)cc12
1.3	2.56	1.26	–	C=CC(=O)NCCc1c(Cc2cccc(OC)c2)oc2ccc(OC)cc12
